For twelve molecules, IC50 results are on record in patent US20240218022A1, “ANTI-VISTA MACROCYCLIC PEPTIDES AND COMPOSITIONS” (BRISTOL-MYERS SQUIBB COMPANY, priority 2022, published 2024).

Starred links: 1 amine or outer side, 2 acyl side, 3 side chain; linkers in the order of their positions; H or OH if unused. Positions of bridges follow the written chain, without caps; N, C: chain ends. Non-standard residues stand in square brackets, D forms with d. Residues, ends and D or L forms follow the SMILES beside them. Phe(4-CONH2) = NC(=O)c1ccc(C[C@H](N)C(=O)O)cc1; βAsp = O=C(O)[C@H](CC(=O)[*:2])N[*:1]; Ahp(2) = CCCCC[C@H](N)C(=O)O; NMeNle = CCCC[C@H](NC)C(=O)O; Tle = CC(C)(C)[C@H](N)C(=O)O; NHexGly = CCCCCCNCC(=O)O; Orn = NCCC[C@H](N)C(=O)O; Aun = NCCCCCCCCCCC(=O)O; Dab = NCC[C@H](N)C(=O)O; AEEA = NCCOCCOCC(=O)O

The assay deals with T1, mouse VISTA (mVISTA) (Mus musculus, UniProt Q9D659).
T1 construct: expressed in transfected cells; host or cells: Human embryonic kidney 293T cells
T1 sequence (Q9D659 33-308): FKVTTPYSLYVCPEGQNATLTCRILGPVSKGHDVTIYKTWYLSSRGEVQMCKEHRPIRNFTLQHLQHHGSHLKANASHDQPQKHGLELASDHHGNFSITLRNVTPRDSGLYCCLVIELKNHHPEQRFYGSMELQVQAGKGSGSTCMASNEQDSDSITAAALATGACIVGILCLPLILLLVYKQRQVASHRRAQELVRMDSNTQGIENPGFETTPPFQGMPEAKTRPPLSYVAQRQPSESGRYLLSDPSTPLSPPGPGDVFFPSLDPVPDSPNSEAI
As to the kind of experiment: Cell-Based Binding High-Content Assay For mVISTA (HC CBA mVISTA). As to conditions: cell-based binding high-content assay, mVISTA; read-out: HC CBA miPrISTA IC50. An outline of the steps:
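293T cells expressing mouse VISTA, with compounds added either after seeding ("no wash") or before seeding and then washed out after 1 h. Biotinylated peptide 2 nM for 30 min at room temperature, then detection with Alexa 647–streptavidin. After fixation with Hoechst stain, plates were high-content imaged; IC50 from four-parameter logistic fit.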

Broadly, the IC50 is the concentration that inhibits the measured activity by half. On to `CCCCCCN1CC(=O)N[C@@H](Cc2ccc(O)cc2)C(=O)N[C@@H](CC(C)C)C(=O)N[C@@H](CC(N)=O)C(=O)N[C@@H](CCCNC(=N)N)C(=O)N(C)[C@@H](CCCC)C(=O)N[C@@H](CCCCC)C(=O)N2CCC[C@H]2C(=O)N[C@@H](C(C)(C)C)C(=O)N[C@@H](CO)C(=O)N[C@H](C(=O)N[C@@H](CCCCN)C(=O)NCCOCCOCC(=O)N[C@@H](CC(=O)O)C(=O)NCCOCCOCC(=O)NCCCCCCCCCCC(=O)O)CSCC(=O)N[C@@H](Cc2ccccc2)C(=O)N[C@@H](Cc2ccc(O)cc2)C(=O)N[C@@H](CC(=O)O)C1=O` [compound 2080] ({CH2CO}-FYD[NHexGly]YLNR[NMeNle][Ahp(2)]P[Tle]SCK[AEEA]D[AEEA][Aun]-OH; thioether N-14), for which the IC50 is 0.0285 µM.

As for `CCCCCCN1CC(=O)N[C@@H](Cc2ccc(O)cc2)C(=O)N[C@@H](CC(C)C)C(=O)N[C@@H](CC(N)=O)C(=O)N[C@@H](CCCNC(=N)N)C(=O)N(C)[C@@H](CCCC)C(=O)N[C@@H](CCCCC)C(=O)N2CCC[C@H]2C(=O)N[C@@H](C(C)(C)C)C(=O)N[C@@H](CC(=O)O)C(=O)N[C@H](C(=O)N[C@@H](CCCN)C(=O)NCCOCCOCC(=O)N[C@@H](CC(=O)O)C(=O)NCCOCCOCC(=O)NCCCCCCCCCCC(=O)O)CSCC(=O)N[C@@H](Cc2ccccc2)C(=O)N[C@@H](Cc2ccc(O)cc2)C(=O)N[C@@H](CC(=O)O)C1=O` [compound 2082] ({CH2CO}-FYD[NHexGly]YLNR[NMeNle][Ahp(2)]P[Tle]DC[Orn][AEEA]D[AEEA][Aun]-OH; thioether N-14), the 50% inhibitory concentration (IC50) came out at 0.0276 µM. To `CCCCCCN1CC(=O)N[C@@H](Cc2ccc(O)cc2)C(=O)N[C@@H](CC(C)C)C(=O)N[C@@H](CC(N)=O)C(=O)N[C@@H](CCCNC(=N)N)C(=O)N(C)[C@@H](CCCC)C(=O)N[C@@H](CCCCC)C(=O)N2CCC[C@H]2C(=O)N[C@@H](C(C)(C)C)C(=O)N[C@@H](CC(=O)O)C(=O)N[C@H](C(=O)N[C@@H](CCN)C(=O)NCCOCCOCC(=O)N[C@@H](CC(=O)O)C(=O)NCCOCCOCC(=O)NCCCCCCCCCCC(=O)O)CSCC(=O)N[C@@H](Cc2ccccc2)C(=O)N[C@@H](Cc2ccc(O)cc2)C(=O)N[C@@H](CC(=O)O)C1=O` [compound 2085] ({CH2CO}-FYD[NHexGly]YLNR[NMeNle][Ahp(2)]P[Tle]DC[Dab][AEEA]D[AEEA][Aun]-OH; thioether N-14) belongs 0.0417 µM; to `CCCCCCN1CC(=O)N[C@@H](Cc2ccc(O)cc2)C(=O)N[C@@H](CC(C)C)C(=O)N[C@@H](CC(N)=O)C(=O)N[C@@H](CCCNC(=N)N)C(=O)N(C)[C@@H](CCCC)C(=O)N[C@@H](CCCCC)C(=O)N2CCC[C@H]2C(=O)N[C@@H](C(C)(C)C)C(=O)N[C@@H](CO)C(=O)N[C@H](C(=O)N[C@@H](CCN)C(=O)NCCOCCOCC(=O)N[C@@H](CC(=O)O)C(=O)NCCOCCOCC(=O)NCCCCCCCCCCC(=O)O)CSCC(=O)N[C@@H](Cc2ccccc2)C(=O)N[C@@H](Cc2ccc(O)cc2)C(=O)N[C@@H](CC(=O)O)C1=O` [compound 2086] ({CH2CO}-FYD[NHexGly]YLNR[NMeNle][Ahp(2)]P[Tle]SC[Dab][AEEA]D[AEEA][Aun]-OH; thioether N-14), 0.0499 µM; to `CCCCCCN1CC(=O)N[C@@H](Cc2ccc(O)cc2)C(=O)N[C@@H](CC(C)C)C(=O)N[C@@H](CC(N)=O)C(=O)N[C@@H](CCCNC(=N)N)C(=O)N(C)[C@@H](CCCC)C(=O)N[C@@H](CCCCC)C(=O)N2CCC[C@H]2C(=O)N[C@@H](C(C)(C)C)C(=O)N[C@@H](CO)C(=O)N[C@H](C(=O)N[C@@H](CC(=O)NCCOCCOCC(=O)N[C@@H](CC(=O)O)C(=O)NCCOCCOCC(=O)NCCCCCCCCCCC(=O)O)C(=O)O)CSCC(=O)N[C@@H](Cc2ccc(C(N)=O)cc2)C(=O)N[C@@H](Cc2ccc(O)cc2)C(=O)N[C@@H](CC(=O)O)C1=O` [compound 2087] ({CH2CO}-[Phe(4-CONH2)]YD[NHexGly]YLNR[NMeNle][Ahp(2)]P[Tle]SC[βAsp][AEEA]D[AEEA][Aun]-OH; thioether N-14), 0.0288 µM.

As for `CCCCCCN1CC(=O)N[C@@H](Cc2ccc(O)cc2)C(=O)N[C@@H](CC(C)C)C(=O)N[C@@H](CC(N)=O)C(=O)N[C@@H](CCCNC(=N)N)C(=O)N(C)[C@@H](CCCC)C(=O)N[C@@H](CCCCC)C(=O)N2CCC[C@H]2C(=O)N[C@@H](C(C)(C)C)C(=O)N[C@@H](CC(=O)O)C(=O)N[C@H](C(=O)N[C@@H](CC(=O)NCCOCCOCC(=O)N[C@@H](CC(=O)O)C(=O)NCCOCCOCC(=O)NCCCCCCCCCCC(=O)O)C(=O)O)CSCC(=O)N[C@@H](Cc2ccc(C(N)=O)cc2)C(=O)N[C@@H](Cc2ccc(O)cc2)C(=O)N[C@@H](CC(=O)O)C1=O` [compound 2088] ({CH2CO}-[Phe(4-CONH2)]YD[NHexGly]YLNR[NMeNle][Ahp(2)]P[Tle]DC[βAsp][AEEA]D[AEEA][Aun]-OH; thioether N-14), the IC50 was determined as 0.0169 µM. As to `CCCCCCN1CC(=O)N[C@@H](Cc2ccc(O)cc2)C(=O)N[C@@H](CC(C)C)C(=O)N[C@@H](CC(N)=O)C(=O)N[C@@H](CCCNC(=N)N)C(=O)N(C)[C@@H](CCCC)C(=O)N[C@@H](CCCCC)C(=O)N2CCC[C@H]2C(=O)N[C@@H](C(C)(C)C)C(=O)N[C@@H](CO)C(=O)N[C@H](C(=O)N[C@@H](CC(=O)NCCOCCOCC(=O)N[C@@H](CC(=O)O)C(=O)NCCOCCOCC(=O)NCCCCCCCCCCC(=O)O)C(=O)O)CSCC(=O)N[C@@H](Cc2ccc(C(N)=O)cc2)C(=O)N[C@@H](Cc2c[nH]c3ccccc23)C(=O)N[C@@H](CC(=O)O)C1=O` [compound 2090] ({CH2CO}-[Phe(4-CONH2)]WD[NHexGly]YLNR[NMeNle][Ahp(2)]P[Tle]SC[βAsp][AEEA]D[AEEA][Aun]-OH; thioether N-14), the concentration for half-maximal inhibition (IC50) came to 0.0344 µM.

With `CCCCCCN1CC(=O)N[C@@H](Cc2ccc(O)cc2)C(=O)N[C@@H](CC(C)C)C(=O)N[C@@H](CC(N)=O)C(=O)N[C@@H](CCCNC(=N)N)C(=O)N(C)[C@@H](CCCC)C(=O)N[C@@H](CCCCC)C(=O)N2CCC[C@H]2C(=O)N[C@@H](C(C)(C)C)C(=O)N[C@@H](CC(=O)O)C(=O)N[C@H](C(=O)N[C@@H](CC(=O)NCCOCCOCC(=O)N[C@@H](CC(=O)O)C(=O)NCCOCCOCC(=O)NCCCCCCCCCCC(=O)O)C(=O)O)CSCC(=O)N[C@@H](Cc2ccc(C(N)=O)cc2)C(=O)N[C@@H](Cc2c[nH]c3ccccc23)C(=O)N[C@@H](CC(=O)O)C1=O` [compound 2091] ({CH2CO}-[Phe(4-CONH2)]WD[NHexGly]YLNR[NMeNle][Ahp(2)]P[Tle]DC[βAsp][AEEA]D[AEEA][Aun]-OH; thioether N-14), the IC50 is 0.0146 µM. As for `CCCCCCN1CC(=O)N[C@@H](Cc2ccc(O)cc2)C(=O)N[C@@H](CC(C)C)C(=O)N[C@@H](CC(N)=O)C(=O)N[C@@H](CCCN)C(=O)N(C)[C@@H](CCCC)C(=O)N[C@@H](CCCCC)C(=O)N2CCC[C@H]2C(=O)N[C@@H](C(C)(C)C)C(=O)N[C@@H](CC(=O)O)C(=O)N[C@H](C(=O)N[C@@H](CC(=O)NCCOCCOCC(=O)N[C@@H](CC(=O)O)C(=O)NCCOCCOCC(=O)NCCCCCCCCCCC(=O)O)C(=O)O)CSCC(=O)N[C@@H](Cc2ccc(C(N)=O)cc2)C(=O)N[C@@H](Cc2ccc(O)cc2)C(=O)N[C@@H](CC(=O)O)C1=O` [compound 2092] ({CH2CO}-[Phe(4-CONH2)]YD[NHexGly]YLN[Orn][NMeNle][Ahp(2)]P[Tle]DC[βAsp][AEEA]D[AEEA][Aun]-OH; thioether N-14), the IC50 was 0.0158 µM. With `CCCCCCN1CC(=O)N[C@@H](Cc2ccc(O)cc2)C(=O)N[C@@H](C)C(=O)N[C@@H](CC(N)=O)C(=O)N[C@@H](CCCN)C(=O)N(C)[C@@H](CCCC)C(=O)N[C@@H](CCCCC)C(=O)N2CCC[C@H]2C(=O)N[C@@H](C(C)(C)C)C(=O)N[C@@H](CO)C(=O)N[C@H](C(=O)N[C@@H](CC(=O)NCCOCCOCC(=O)N[C@@H](CC(=O)O)C(=O)NCCOCCOCC(=O)NCCCCCCCCCCC(=O)O)C(=O)O)CSCC(=O)N[C@@H](Cc2ccccc2)C(=O)N[C@@H](Cc2c[nH]c3ccccc23)C(=O)N[C@@H](CC(=O)O)C1=O` [compound 2093] ({CH2CO}-FWD[NHexGly]YAN[Orn][NMeNle][Ahp(2)]P[Tle]SC[βAsp][AEEA]D[AEEA][Aun]-OH; thioether N-14) the figure was 0.0221 µM; with `CCCCCCN1CC(=O)N[C@@H](Cc2ccc(O)cc2)C(=O)N[C@@H](C)C(=O)N[C@@H](CC(N)=O)C(=O)N[C@@H](CCCNC(=N)N)C(=O)N(C)[C@@H](CCCC)C(=O)N[C@@H](CCCCC)C(=O)N2CCC[C@H]2C(=O)N[C@@H](C(C)(C)C)C(=O)N[C@@H](CC(=O)O)C(=O)N[C@H](C(=O)N[C@@H](CC(=O)NCCOCCOCC(=O)N[C@@H](CC(=O)O)C(=O)NCCOCCOCC(=O)NCCCCCCCCCCC(=O)O)C(=O)O)CSCC(=O)N[C@@H](Cc2ccccc2)C(=O)N[C@@H](Cc2c[nH]c3ccccc23)C(=O)N[C@@H](CC(=O)O)C1=O` [compound 2094] ({CH2CO}-FWD[NHexGly]YANR[NMeNle][Ahp(2)]P[Tle]DC[βAsp][AEEA]D[AEEA][Aun]-OH; thioether N-14), 0.0347 µM. With `CCCCCCN1CC(=O)N[C@@H](Cc2ccc(O)cc2)C(=O)N[C@@H](C)C(=O)N[C@@H](CC(N)=O)C(=O)N[C@@H](CCCN)C(=O)N(C)[C@@H](CCCC)C(=O)N[C@@H](CCCCC)C(=O)N2CCC[C@H]2C(=O)N[C@@H](C(C)(C)C)C(=O)N[C@@H](CC(=O)O)C(=O)N[C@H](C(=O)N[C@@H](CC(=O)NCCOCCOCC(=O)N[C@@H](CC(=O)O)C(=O)NCCOCCOCC(=O)NCCCCCCCCCCC(=O)O)C(=O)O)CSCC(=O)N[C@@H](Cc2ccccc2)C(=O)N[C@@H](Cc2ccc(O)cc2)C(=O)N[C@@H](CC(=O)O)C1=O` [compound 2095] ({CH2CO}-FYD[NHexGly]YAN[Orn][NMeNle][Ahp(2)]P[Tle]DC[βAsp][AEEA]D[AEEA][Aun]-OH; thioether N-14) the figure was 0.0501 µM.
